Assay results from ChEMBL document CHEMBL6153174, “Design and Synthesis of Novel Deazapurine DNMT 1 Inhibitors with In Vivo Efficacy in DLBCL” (J Med Chem, 2025).

Experiments:
Jurkat = test: Antiproliferative activity against human Jurkat cells assessed as inhibition of cell viability measured after 72 hrs by MTT assay; assay type: functional, cell-based
[1] = Antitumor activity against human TMD8 cells harbouring […] xenografted in mouse model assessed as tumor inhibition rate at 2.5 mg/kg, ip QD relative to control; assay type: functional; parameters: scale not given: the % may be the effect or the level left
[2] = Antitumor activity against human TMD8 cells harbouring TP53 mutant xenografted in mouse model assessed as body weight change at 2.5 mg/kg, ip QD relative to control; assay type: functional
TMD8 [3] = test: Antitumor activity against human TMD8 cells xenografted in mouse model assessed as tumor inhibition rate at 2.5 mg/kg, ip QD relative to control; assay type: functional; parameters: scale not given: the % may be the effect or the level left
[4] = Antitumor activity against human TMD8 cells harbouring […] xenografted in mouse model assessed as body weight change at 2.5 mg/kg, ip QD relative to control; assay type: functional
[5] = Upregulation of BAX mRNA level in human DOHH-2 cells assessed as fold change at 300 nM measured after 6 days by PCR analysis; assay type: functional; details: time 6 day
U2932 = test: Antiproliferative activity against human U2932 cells assessed as inhibition of cell viability measured after 72 hrs by MTT assay; assay type: functional, cell-based; details: U2932, 72 h
DOHH-2 = test: Antiproliferative activity against human DOHH-2 cells assessed as inhibition of cell viability measured after 72 hrs by MTT assay; assay type: functional, cell-based; details: DOHH-2, 72 h
[6] = Antitumor activity against human TMD8 cells harbouring TP53 mutant xenografted in mouse model assessed as tumor inhibition rate at 2.5 mg/kg, ip QD relative to control; assay type: functional; parameters: scale not given: the % may be the effect or the level left
[7] = Antiproliferative activity against human NK-YS cells assessed as inhibition of cell viability measured after 72 hrs by MTT assay; assay type: functional, cell-based
TMD8 [8] = test: Antiproliferative activity against human TMD8 cells assessed as inhibition of cell viability measured after 72 hrs by MTT assay; assay type: functional, cell-based; details: TMD8, 72 h
[9] = Upregulation of FAS mRNA level in human DOHH-2 cells assessed as fold change at 300 nM measured after 6 days by PCR analysis; assay type: functional; details: time 6 day

IC50 (Jurkat): 1080 nM
SMILES: Nc1ncn([C@@H]2O[C@H](CO)[C@@H](O)[C@H]2O)c(=O)n1 [AZACITIDINE]
Activity [1]: 52.1%
Activity [2]: -5.9%
Activity (TMD8 [3]): 53.02%
Activity [4]: -5.9%
fold change (FC) [5]: 1.86
IC50 (U2932): 1830 nM
IC50 (DOHH-2): 340 nM
Activity [6]: 43.6%
IC50 [7]: 3.28 µM
IC50 (TMD8 [8]): 2840 nM
fold change (FC) [9]: 1.8
